These are literature values, as cited in patent US5962660A, “Sialyl Lewis X mimetics incorporating fucopeptides” (The Scripps Research Institute, priority 1997, dated 1999).

The conditions of data set [1]: for lung injury / tissue accumulation of neutrophils: intravenous infusion of up to 200 μg, rats given intravenous cobra venom.
For data set [2] the following is noted: because of glycosidase reactions.

For “NeuAcα2→3Galβ1→4(Fucα1→3)GlcNAcβ1,3Galβ- [pentamer]”, in data set [1], the lung injury entry is reported as “dramatically reduced” and the “tissue accumulation of neutrophils” value was “diminished”.

In the case of NeuAcα2→3Galβ1→4(Fucα1→3)GlcNAc [SLe^x], in data set [1] (calculated from the 200 μg used), the effective intravenous concentration result is on record as “less than 1 μM”. For the same substance, in data set [1], the lung injury result is on record as “dramatically reduced” and the “tissue accumulation of neutrophils” value is “diminished”. Besides, the IC50 in data set [1] (rats, read-out: IC50 value in vivo for protecting against lung injury) is approximately 1000 nM. Moreover, in data set [2], the “stability in the blood stream” value is on record as “unstable”. Moreover, in the data set on E-selectin, the “affinity for E-selectin in vitro” value is “relatively weak”.

For orientation: IC50 means the concentration needed to halve the response being measured.
